Calls of active or inactive are those of the source.
Experiments:
Cytochrome P450 2C19 = Cytochrome P450 2C19 (Homo sapiens, UniProt P33261); assay: Cytochrome panel assay with activity outcomes. Panel member name: p450-cyp2c19 Compounds with AC50 equal or less than 10 uM are considered active; format: functional
Cytochrome P450 3A4 = Cytochrome P450 3A4 (Homo sapiens, UniProt P08684);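 further: CYP3A4 tested as one member of a cytochrome P450 panel screen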
Cytochrome P450 2D6 = Cytochrome P450 2D6 (Homo sapiens, UniProt P10635);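 further: CYP2D6 member of a cytochrome P450 panel assay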
Cytochrome P450 2D6, sequence (P10635 whole entry): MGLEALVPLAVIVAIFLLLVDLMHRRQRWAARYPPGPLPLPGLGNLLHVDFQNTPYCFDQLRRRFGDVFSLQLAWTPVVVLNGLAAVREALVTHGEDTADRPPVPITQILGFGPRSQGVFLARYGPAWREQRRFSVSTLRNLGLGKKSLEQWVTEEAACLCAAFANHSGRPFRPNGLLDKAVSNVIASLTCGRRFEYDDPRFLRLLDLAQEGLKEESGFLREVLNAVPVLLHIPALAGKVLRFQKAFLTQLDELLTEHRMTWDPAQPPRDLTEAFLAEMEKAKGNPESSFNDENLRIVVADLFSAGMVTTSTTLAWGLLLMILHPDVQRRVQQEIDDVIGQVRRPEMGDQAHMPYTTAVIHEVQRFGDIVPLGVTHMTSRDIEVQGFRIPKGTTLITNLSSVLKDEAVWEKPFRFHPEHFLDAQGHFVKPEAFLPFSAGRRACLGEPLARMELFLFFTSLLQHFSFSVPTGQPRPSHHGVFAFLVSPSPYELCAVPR

Cytochrome P450 2C9 = Cytochrome P450 2C9 (Homo sapiens, UniProt P11712)
Cytochrome P450 2C9, sequence (P11712 whole entry): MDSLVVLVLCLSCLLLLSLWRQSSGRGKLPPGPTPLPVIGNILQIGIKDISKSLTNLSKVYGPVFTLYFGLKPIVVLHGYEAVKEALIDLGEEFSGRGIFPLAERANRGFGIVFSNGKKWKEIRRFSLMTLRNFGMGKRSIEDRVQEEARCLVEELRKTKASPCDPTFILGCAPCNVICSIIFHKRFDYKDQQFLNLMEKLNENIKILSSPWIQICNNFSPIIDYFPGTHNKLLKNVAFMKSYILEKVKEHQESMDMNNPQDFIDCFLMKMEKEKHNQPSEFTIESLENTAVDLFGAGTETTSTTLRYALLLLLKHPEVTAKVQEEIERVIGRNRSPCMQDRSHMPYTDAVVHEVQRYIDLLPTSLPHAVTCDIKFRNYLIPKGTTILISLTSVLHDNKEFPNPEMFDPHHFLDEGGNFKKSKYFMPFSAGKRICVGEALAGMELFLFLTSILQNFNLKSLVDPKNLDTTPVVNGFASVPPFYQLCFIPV

Streptococcus = assay: Group A Streptococcus viability loss, dose response, counter-screen for streptokinase expression inhibitor project, luminescence, BacTiterGlo (AID 1915); format: functional, organism-based;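 further: potency for reduction of bacterial viability or growth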
Streptokinase A = biological target: T1, Streptokinase A (Streptococcus pyogenes serotype M1, UniProt P10520); assay: S. pyogenes streptokinase expression inhibitors, potency, dose response, plasminogen activation absorbance, OD405 (AID 1914); format: functional, Streptococcus pyogenes M1 GAS;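 further: secreted streptokinase activity via plasminogen activation per viability signal from cell pellet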
T1 sequence (P10520 whole entry): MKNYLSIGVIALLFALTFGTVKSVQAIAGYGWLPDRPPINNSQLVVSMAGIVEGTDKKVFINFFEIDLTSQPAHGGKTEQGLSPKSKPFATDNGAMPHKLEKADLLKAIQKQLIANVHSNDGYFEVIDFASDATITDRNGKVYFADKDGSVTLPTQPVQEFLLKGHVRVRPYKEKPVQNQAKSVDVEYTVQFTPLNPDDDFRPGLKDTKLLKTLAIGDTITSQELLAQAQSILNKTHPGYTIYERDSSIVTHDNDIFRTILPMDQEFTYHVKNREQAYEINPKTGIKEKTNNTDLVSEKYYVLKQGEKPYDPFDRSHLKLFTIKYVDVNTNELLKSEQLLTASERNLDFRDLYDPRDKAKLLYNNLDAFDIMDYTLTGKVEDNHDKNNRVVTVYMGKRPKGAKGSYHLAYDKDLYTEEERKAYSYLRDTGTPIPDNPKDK

[1] = system: Streptococcus sp. 'group A'; assay: growth inhibition of control SK(-) GAS strain, dose response, counter-screen for streptokinase expression inhibitor project, luminescence, kanamycin, BacTiterGlo, confirmation (AID 1900); format: functional, organism-based
[2] = inhibitors of intracellular T. cruzi replication, confirmation, NIH3T3 host cells, beta-gal luminescence (AID 2044); format: functional, cell-based;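 further: intracellular parasites grown in NIH/3T3 mouse fibroblasts as host cells; luminescent beta-galactosidase reporter signal from transgenic T. cruzi replicating inside host cells; inhibitors lower the luminescence signal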
[3] = cytotoxicity toward NIH3T3 fibroblasts, dose response, counter-screen, cell-based, ATP luminescence, mouse fibroblasts (AID 2010); format: functional;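 further: cells exposed to compound for about 90 hours before reading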
INS1 = assay: beta cell apoptosis inhibitors, cytokine rescue, dose response, luminescence, retest (AID 449756); format: functional, cell-based; conditions: Rattus norvegicus;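 further: cell death triggered by IL-1 beta plus TNF-alpha plus IFN-gamma mixture; protective hits raise ATP signal compared with cytokine alone wells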

Cytochrome P450 2C19, sequence (P33261 whole entry): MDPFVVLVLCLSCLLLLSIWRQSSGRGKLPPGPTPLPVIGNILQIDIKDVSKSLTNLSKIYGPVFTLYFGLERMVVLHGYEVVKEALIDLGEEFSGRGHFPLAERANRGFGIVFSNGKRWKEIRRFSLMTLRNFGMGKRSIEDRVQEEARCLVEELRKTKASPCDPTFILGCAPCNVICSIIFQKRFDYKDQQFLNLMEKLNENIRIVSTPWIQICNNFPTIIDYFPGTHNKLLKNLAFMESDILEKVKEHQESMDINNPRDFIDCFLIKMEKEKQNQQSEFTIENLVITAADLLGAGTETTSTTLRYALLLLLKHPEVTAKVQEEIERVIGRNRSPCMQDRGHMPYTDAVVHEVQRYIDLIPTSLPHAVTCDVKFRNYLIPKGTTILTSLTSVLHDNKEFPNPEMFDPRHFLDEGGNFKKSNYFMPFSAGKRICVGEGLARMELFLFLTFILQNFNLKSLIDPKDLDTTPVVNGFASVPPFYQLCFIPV
Cytochrome P450 3A4, sequence (P08684 whole entry): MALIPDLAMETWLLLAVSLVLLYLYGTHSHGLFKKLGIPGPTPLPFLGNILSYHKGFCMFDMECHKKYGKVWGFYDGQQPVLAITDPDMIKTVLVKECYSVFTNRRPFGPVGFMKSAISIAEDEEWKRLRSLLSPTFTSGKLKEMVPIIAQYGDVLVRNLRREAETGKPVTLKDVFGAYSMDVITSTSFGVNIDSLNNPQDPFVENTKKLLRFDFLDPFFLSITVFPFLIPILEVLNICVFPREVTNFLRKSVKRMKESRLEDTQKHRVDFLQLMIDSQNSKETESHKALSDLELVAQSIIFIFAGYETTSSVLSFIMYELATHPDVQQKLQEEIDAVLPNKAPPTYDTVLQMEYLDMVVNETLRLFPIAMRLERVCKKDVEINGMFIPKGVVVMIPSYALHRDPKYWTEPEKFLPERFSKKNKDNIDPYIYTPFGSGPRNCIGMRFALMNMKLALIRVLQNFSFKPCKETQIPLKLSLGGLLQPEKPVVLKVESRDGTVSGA

SMILES: c1ccc(Nc2nc(-c3ccoc3)nc3ccccc23)cc1
- AC50 (Cytochrome P450 2C19; read-out: AC50): 31.6 µM (inconclusive)
- AC50 (Cytochrome P450 3A4): 20 µM (inconclusive)
- AC50 (Cytochrome P450 2D6): 39.8 µM (inconclusive)

SMILES: CCCC[P+](CCCC)(CCCC)Cc1ccc(NC(=O)[C@@H](Cc2ccc3ccccc3c2)N=C(NC2CCCCC2)NC2CCCCC2)cc1
- AC50 (Cytochrome P450 3A4): 25.1 µM (inconclusive)

SMILES: COc1cccc([C@@H]2Oc3ccc(Br)cc3C(=O)[C@H]2O)c1
- AC50 (Cytochrome P450 3A4): 6.31 µM (inconclusive)

SMILES: CN(Cc1ccco1)c1nc(-c2cccc(C#N)c2)nc2ccccc12
- AC50 (Cytochrome P450 2C9): 1 µM (inconclusive)

SMILES: O=C(NCC(=O)N(c1ccccc1)C(C(=O)NC1CCCC1)c1cccnc1)c1cccs1 (stereo unspecified)
- AC50 (Cytochrome P450 2C19; read-out: AC50): 15.8 µM (inconclusive)
- AC50 (Cytochrome P450 2C9): 17.8 µM (inconclusive)

SMILES: COc1ccc2[nH]cc(CCNc3ccnc(-c4ccoc4)n3)c2c1
- AC50 (Cytochrome P450 2C9): 0.794 µM (inconclusive)

SMILES: Cc1ccc(CNC(=O)C2CCC(=O)N2C2CCCCC2)cc1 (stereo unspecified)
- AC50 (Cytochrome P450 2C9): 7.08 µM (inconclusive)

SMILES: CCOP(=O)(Cc1ccc(C(=O)CC)o1)OCC
- EC50 (Streptococcus): > 150 µM (not active)
- EC50 (Streptokinase A): > 150 µM (not active)
- EC50 [1]: > 150 µM (not active)

SMILES: CN(C)C(=O)c1ccc(-c2cncnc2-n2ccnc2)cc1
- AC50 (Cytochrome P450 3A4): 10 µM (inconclusive)
- AC50 (Cytochrome P450 2D6): 25.1 µM (inconclusive)

SMILES: COc1ccc(-c2nc3cnc(OC)nc3n(Cc3cccs3)c2=O)cc1
- AC50 (Cytochrome P450 2C9): 5.01 µM (inconclusive)
- AC50 (Cytochrome P450 2D6): 7.94 µM (inconclusive)

SMILES: Cc1c(NC(=O)/C=C/C(=O)O)cccc1[N+](=O)[O-]
- AC50 (Cytochrome P450 2C19; read-out: AC50): 15.8 µM (inconclusive)
- AC50 (Cytochrome P450 2C9): 28.2 µM (inconclusive)

SMILES: Oc1oc(-c2ccccc2)nc1/C=N/c1ccccc1
- AC50 (Cytochrome P450 3A4): 25.1 µM (inconclusive)

SMILES: O=C(NNC1=Nc2cccc3cccc1c23)c1ccc(Br)cc1
- EC50 (Streptococcus): 10.6 µM (active)
- EC50 (Streptokinase A): > 150 µM (not active)
- EC50 [2]: 1.12 µM (active)
- EC50 [3]: 6.29 µM (active)
- EC50 [1]: 0.324 µM (active)

SMILES: COc1ccc(S(=O)(=O)Nc2ccc3oc(C)c(C(C)=O)c3c2)cc1
- AC50 (INS1): 6.13 µM (active)

SMILES: CC(=O)Nc1ccc(N2C(=O)CSC2c2c(F)cccc2Cl)cc1 (stereo unspecified)
- AC50 (Cytochrome P450 2C19; read-out: AC50): 39.8 µM (inconclusive)
- AC50 (Cytochrome P450 3A4): 22.4 µM (inconclusive)

SMILES: Cc1noc(C)c1C(=O)Nc1ccc2ccccc2c1
- EC50 (Streptococcus): > 150 µM (not active)
- EC50 (Streptokinase A): > 150 µM (not active)
- EC50 [1]: > 150 µM (not active)

SMILES: CCn1cc(CN2CCC(n3nccc3NC(=O)Cc3ccccc3)CC2)cn1
- EC50 (Streptococcus): > 150 µM (not active)
- EC50 (Streptokinase A): > 150 µM (not active)
- EC50 [1]: > 150 µM (not active)

SMILES: CCCn1nc2cc(C(=O)NCCc3ccc(C)cc3)ccc2c1OCC
- AC50 (Cytochrome P450 2C9): 39.8 µM (inconclusive)

SMILES: O=C(Nc1nc(-c2ccccc2)cs1)c1ccc(Br)o1
- AC50 (Cytochrome P450 3A4): 31.6 µM (inconclusive)
- AC50 (Cytochrome P450 2C9): 11.2 µM (inconclusive)

SMILES: Cc1ccc(S(=O)(=O)N2CCCCC2)cc1NC(=O)CN1C(=O)CN(C)C1=O
- EC50 (Streptococcus): > 150 µM (not active)
- EC50 (Streptokinase A): > 150 µM (not active)
- EC50 [1]: > 150 µM (not active)

SMILES: CCCCNC(=O)c1onc(CSc2ccc(C(C)C)cc2)c1C(=O)O
- EC50 (Streptococcus): > 150 µM (not active)
- EC50 (Streptokinase A): 2.28 µM (active)
- EC50 [1]: 3.81 µM (active)

SMILES: CCCCNC(=O)C(=O)NC(C)CCc1ccccc1 (stereo unspecified)
- AC50 (Cytochrome P450 2C9): 17.8 µM (inconclusive)

SMILES: O=c1[nH]c(=S)[nH]nc1Cc1ccccc1
- AC50 (Cytochrome P450 2C19): inconclusive
- AC50 (Cytochrome P450 2C9): 39.8 µM (inconclusive)

From ChEMBL document CHEMBL1201862, “PubChem BioAssay data set” (2004)
